Patent US11612606B2, “8-aminoisoquinoline compounds and uses thereof” (priority 2018, dated 2023)

Molecular target: HPK full length, T165E S171E (Homo sapiens (Human), UniProt Q92918, S171E/T165E)
Assay: HPK1-FL HTRF enzymatic assay ("HTRF")
Type: biochemical
Conditions: ATP 1 mM, read-out: HPK1 Ki
Procedure: Assay Principle: HPK-FL enzyme phosphorylates Biotin-SLP-76 substrate in the presence of ATP at […] and varying concentrations of test compound. Product is detected by FRET using Eu-anti-pSLP76 Ab and SA-XL665. Also see www.cisbio.com/HTRF for additional HTRF technology information.
Instrumentation: Echo555 compound dispenser; Agilent Bravo; Perkin Elmer Envision.
To a 384 well Proxiplate with 80 nL compound or DMSO spotted on was added 4 μl/well kinase mix. The mixture was preincubated for 30 minutes and then 4 μl/well substrate mix was added. The solution was incubated for 60 min and then 4 μl/well detection mix was added. The solution was incubated for another 60 min.
Exemplary compounds were tested in the HTRF binding assays.

Sequence of HPK full length, T165E S171E (Q92918 whole entry T165E/S171E, looked up): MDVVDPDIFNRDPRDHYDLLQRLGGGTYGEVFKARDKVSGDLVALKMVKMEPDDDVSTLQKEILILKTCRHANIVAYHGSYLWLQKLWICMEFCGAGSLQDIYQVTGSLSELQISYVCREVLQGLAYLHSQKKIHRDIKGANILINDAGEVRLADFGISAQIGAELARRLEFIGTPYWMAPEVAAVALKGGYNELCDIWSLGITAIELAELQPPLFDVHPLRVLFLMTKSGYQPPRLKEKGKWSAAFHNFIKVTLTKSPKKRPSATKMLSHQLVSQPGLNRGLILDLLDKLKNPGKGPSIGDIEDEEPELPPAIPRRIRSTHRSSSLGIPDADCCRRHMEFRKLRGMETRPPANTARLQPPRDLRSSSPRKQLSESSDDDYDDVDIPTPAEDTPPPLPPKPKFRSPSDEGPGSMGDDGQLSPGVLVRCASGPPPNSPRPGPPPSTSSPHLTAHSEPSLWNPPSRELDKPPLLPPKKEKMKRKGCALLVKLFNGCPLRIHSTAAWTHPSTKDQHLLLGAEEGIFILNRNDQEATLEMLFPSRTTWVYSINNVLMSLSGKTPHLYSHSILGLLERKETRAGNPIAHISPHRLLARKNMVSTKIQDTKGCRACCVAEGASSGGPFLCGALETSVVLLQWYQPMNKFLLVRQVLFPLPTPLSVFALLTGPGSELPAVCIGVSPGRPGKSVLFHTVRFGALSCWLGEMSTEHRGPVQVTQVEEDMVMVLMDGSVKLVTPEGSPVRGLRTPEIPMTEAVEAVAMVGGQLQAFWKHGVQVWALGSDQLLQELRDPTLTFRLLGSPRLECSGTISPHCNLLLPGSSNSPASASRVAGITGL

SMILES	Ki [nM]
Cc1c(-c2cc3cc(NC(=O)O[C@@H]4CCN(CC(F)F)C[C@@H]4F)ncc3c(N)c2F)cnc2c1NCCO2 (single isomer, unassigned) [Compound 566a]	0.293
Cc1c(-c2cc3cc(NC(=O)O[C@H]4CCN(CC(F)F)C[C@H]4F)ncc3c(N)c2F)cnc2c1NCCO2 (single isomer, unassigned) [Compound 566b]	0.149
Cc1c(-c2cc3cc(NC(=O)O[C@H]4COC[C@@H]4C)ncc3c(N)c2F)cnc2c1NC[C@H](F)O2 (single isomer, unassigned) [Compound 567a]	0.33
Cc1c(-c2cc3cc(NC(=O)O[C@H]4COC[C@@H]4C)ncc3c(N)c2F)cnc2c1NC[C@@H](F)O2 (single isomer, unassigned) [Compound 567b]	0.119
Cc1c(-c2cc3cc(NC(=O)O[C@H]4CO[C@@H]5OCC[C@@H]54)ncc3c(N)c2F)cnc2c1NCCO2 (single isomer, unassigned) [Compound 568a]	0.185
Cc1c(-c2cc3cc(NC(=O)O[C@@H]4CO[C@H]5OCC[C@H]54)ncc3c(N)c2F)cnc2c1NCCO2 (single isomer, unassigned) [Compound 568b]	0.018
Cc1c(-c2cc3cc(NC(=O)O[C@H]4C[C@@H]([C@H](C)O)C4)ncc3c(N)c2F)cnc2c1NCCO2 (single isomer, unassigned) [Compound 573a]	0.015
Cc1c(-c2cc3cc(NC(=O)O[C@H]4C[C@H]([C@H](C)O)C4)ncc3c(N)c2F)cnc2c1NCCO2 (single isomer, unassigned) [Compound 573b]	0.019
Cc1c(-c2cc3cc(NC(=O)O[C@H]4C[C@H]([C@@H](C)O)C4)ncc3c(N)c2F)cnc2c1NCCO2 (single isomer, unassigned) [Compound 573c]	0.017
Cc1c(-c2cc3cc(NC(=O)O[C@H]4C[C@@H]([C@@H](C)O)C4)ncc3c(N)c2F)cnc2c1NCCO2 (single isomer, unassigned) [Compound 573d]	< 0.013
Cc1c(-c2cc3cc(NC(=O)O[C@@H]4Cc5ncnn5C4)ncc3c(N)c2F)cnc2c1NCCO2 (single isomer, unassigned) [Compound 578a]	0.028
Cc1c(-c2cc3cc(NC(=O)O[C@H]4Cc5ncnn5C4)ncc3c(N)c2F)cnc2c1NCCO2 (single isomer, unassigned) [Compound 578b]	0.15
Cc1c(-c2cc3cc(NC(=O)O[C@H]4CC[C@@H](O)C4)ncc3c(N)c2F)cnc2c1NCCO2 (single isomer, unassigned) [Compound 582a]	0.02
Cc1c(-c2cc3cc(NC(=O)O[C@@H]4CC[C@H](O)C4)ncc3c(N)c2F)cnc2c1NCCO2 (single isomer, unassigned) [Compound 582b]	0.02
CO[C@H]1COCC[C@@H]1OC(=O)Nc1cc2cc(-c3cnc4c(c3C)NCCO4)c(F)c(N)c2cn1 (single isomer, unassigned) [Compound 583a]	0.12
CO[C@H]1COCC[C@H]1OC(=O)Nc1cc2cc(-c3cnc4c(c3C)NCCO4)c(F)c(N)c2cn1 (single isomer, unassigned) [Compound 583b]	0.021
CO[C@@H]1COCC[C@@H]1OC(=O)Nc1cc2cc(-c3cnc4c(c3C)NCCO4)c(F)c(N)c2cn1 (single isomer, unassigned) [Compound 583c]	0.099
CO[C@@H]1COCC[C@H]1OC(=O)Nc1cc2cc(-c3cnc4c(c3C)NCCO4)c(F)c(N)c2cn1 (single isomer, unassigned) [Compound 583d]	0.72

SMILES	Ki [nM]
Cc1c(-c2cc3cc(NC(=O)O[C@H]4C[C@@H](O)C4)ncc3c(N)c2F)cnc2c1NC[C@@H]1C[C@H]21 (single isomer, unassigned) [Compound 584a]	0.14
Cc1c(-c2cc3cc(NC(=O)O[C@H]4C[C@@H](O)C4)ncc3c(N)c2F)cnc2c1NC[C@H]1C[C@@H]21 (single isomer, unassigned) [Compound 584b]	2.1
Cc1c(-c2cc3cc(NC(=O)N[C@@H]4CCN(C)C[C@H]4F)ncc3c(N)c2F)cnc2c1NCCO2 (single isomer, unassigned) [Compound 703a]	0.022
Cc1c(-c2cc3cc(NC(=O)N[C@H]4CCN(C)C[C@@H]4F)ncc3c(N)c2F)cnc2c1NCCO2 (single isomer, unassigned) [Compound 703b]	< 0.013
Cc1c(-c2cc3cc(NC(=O)N[C@H]4CCN(C)C[C@H]4F)ncc3c(N)c2F)cnc2c1NCCO2 (single isomer, unassigned) [Compound 703c, (±)-1-(8-Amino-7-fluoro-6-(8-methyl-2,3-dihydro-1H-pyrido[2,3-b][1,4]oxazin-7-yl)isoquinolin-3-yl)-3-((cis)-3-fluoro-1-methylpiperidin-4-yl)urea]	0.03
CC(=O)N1CC[C@H](NC(=O)Nc2cc3cc(-c4cnc5c(c4C)NCCO5)c(F)c(N)c3cn2)[C@H](F)C1 (single isomer, unassigned) [Compound 710a, (±)-1-((cis)-1-Acetyl-3-fluoropiperidin-4-yl)-3-(8-amino-7-fluoro-6-(8-methyl-2,3-dihydro-1H-pyrido[2,3-b][1,4]oxazin-7-yl)isoquinolin-3-yl)urea]	< 0.013
Cc1c(-c2cc3cc(NC(=O)N[C@H]4CCCOC4)ncc3c(N)c2F)cnc2c1NCCO2 (single isomer, unassigned) [Compound 711a]	< 0.013
Cc1c(-c2cc3cc(NC(=O)N[C@@H]4CCCOC4)ncc3c(N)c2F)cnc2c1NCCO2 (single isomer, unassigned) [Compound 711b]	< 0.013
Cc1c(-c2cc3cc(NC(=O)N[C@@H]4CCOC4)ncc3c(N)c2F)cnc2c1NCCO2 (single isomer, unassigned) [Compound 722a]	< 0.013
Cc1c(-c2cc3cc(NC(=O)N[C@H]4CCOC4)ncc3c(N)c2F)cnc2c1NCCO2 (single isomer, unassigned) [Compound 722b]	< 0.013
CO[C@@H]1COC[C@@H]1NC(=O)Nc1cc2cc(-c3cnc4c(c3C)NCCO4)c(F)c(N)c2cn1 (single isomer, unassigned) [Compound 723a]	0.469
CO[C@H]1COC[C@H]1NC(=O)Nc1cc2cc(-c3cnc4c(c3C)NCCO4)c(F)c(N)c2cn1 (single isomer, unassigned) [Compound 723b]	0.029
Cc1c(-c2cc3cc(NC(=O)N[C@H]4COC[C@H]4F)ncc3c(N)c2F)cnc2c1NCCO2 (single isomer, unassigned) [Compound 724a]	0.019
Cc1c(-c2cc3cc(NC(=O)N[C@@H]4COC[C@@H]4F)ncc3c(N)c2F)cnc2c1NCCO2 (single isomer, unassigned) [Compound 724b]	0.019
Cc1c(-c2cc3cc(NC(=O)N[C@@H]4CC[C@H](C#N)C4)ncc3c(N)c2F)cnc2c1NCCO2 (single isomer, unassigned) [Compound 726a]	< 0.013
Cc1c(-c2cc3cc(NC(=O)N[C@H]4CC[C@@H](C#N)C4)ncc3c(N)c2F)cnc2c1NCCO2 (single isomer, unassigned) [Compound 726b]	0.016
CO[C@@H]1CCC[C@@H]1NC(=O)Nc1cc2cc(-c3cnc4c(c3C)NCCO4)c(F)c(N)c2cn1 (single isomer, unassigned) [Compound 729a]	1.37
CO[C@H]1CCC[C@H]1NC(=O)Nc1cc2cc(-c3cnc4c(c3C)NCCO4)c(F)c(N)c2cn1 (single isomer, unassigned) [Compound 729b]	0.015
